Values of other authors, collected in patent publication US20030109678A1, “Methods and means for regulation of gene expression” (priority 2000, published 2003).

Target: mutated form of the human estrogen receptor (ER), G521R mutation (Homo sapiens, UniProt P03372, G521R)
Sequence (P03372 whole entry G521R): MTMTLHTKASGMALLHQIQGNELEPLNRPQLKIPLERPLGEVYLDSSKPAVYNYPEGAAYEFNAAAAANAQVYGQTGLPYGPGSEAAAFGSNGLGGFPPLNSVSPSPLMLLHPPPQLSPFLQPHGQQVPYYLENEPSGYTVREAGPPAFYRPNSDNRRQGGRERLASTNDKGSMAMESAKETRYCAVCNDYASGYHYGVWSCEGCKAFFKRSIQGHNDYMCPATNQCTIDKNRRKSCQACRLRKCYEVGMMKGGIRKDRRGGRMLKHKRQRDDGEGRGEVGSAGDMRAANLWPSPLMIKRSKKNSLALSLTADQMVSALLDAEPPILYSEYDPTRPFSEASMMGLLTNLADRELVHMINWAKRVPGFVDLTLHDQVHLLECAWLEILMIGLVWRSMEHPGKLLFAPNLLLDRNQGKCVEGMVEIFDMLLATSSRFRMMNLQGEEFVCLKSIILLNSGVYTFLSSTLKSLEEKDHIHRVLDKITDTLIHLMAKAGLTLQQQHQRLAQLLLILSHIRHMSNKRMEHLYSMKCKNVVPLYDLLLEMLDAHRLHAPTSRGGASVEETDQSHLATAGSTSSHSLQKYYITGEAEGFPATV

4-hydroxytamoxifen
binding by G521R ER: efficiently binds
